Experimental data from patent publication US20260138961A1, “MODULATORS OF MITOCHONDRIAL DNA REPLICATION” (Pretzel Therapeutics, Inc., priority 2022, published 2026).

Target: T1, POLγ W748S + E1143G (Homo sapiens, UniProt P54098, E1143G/W748S)
T1 sequence (P54098 1-1239 W748S/E1143G): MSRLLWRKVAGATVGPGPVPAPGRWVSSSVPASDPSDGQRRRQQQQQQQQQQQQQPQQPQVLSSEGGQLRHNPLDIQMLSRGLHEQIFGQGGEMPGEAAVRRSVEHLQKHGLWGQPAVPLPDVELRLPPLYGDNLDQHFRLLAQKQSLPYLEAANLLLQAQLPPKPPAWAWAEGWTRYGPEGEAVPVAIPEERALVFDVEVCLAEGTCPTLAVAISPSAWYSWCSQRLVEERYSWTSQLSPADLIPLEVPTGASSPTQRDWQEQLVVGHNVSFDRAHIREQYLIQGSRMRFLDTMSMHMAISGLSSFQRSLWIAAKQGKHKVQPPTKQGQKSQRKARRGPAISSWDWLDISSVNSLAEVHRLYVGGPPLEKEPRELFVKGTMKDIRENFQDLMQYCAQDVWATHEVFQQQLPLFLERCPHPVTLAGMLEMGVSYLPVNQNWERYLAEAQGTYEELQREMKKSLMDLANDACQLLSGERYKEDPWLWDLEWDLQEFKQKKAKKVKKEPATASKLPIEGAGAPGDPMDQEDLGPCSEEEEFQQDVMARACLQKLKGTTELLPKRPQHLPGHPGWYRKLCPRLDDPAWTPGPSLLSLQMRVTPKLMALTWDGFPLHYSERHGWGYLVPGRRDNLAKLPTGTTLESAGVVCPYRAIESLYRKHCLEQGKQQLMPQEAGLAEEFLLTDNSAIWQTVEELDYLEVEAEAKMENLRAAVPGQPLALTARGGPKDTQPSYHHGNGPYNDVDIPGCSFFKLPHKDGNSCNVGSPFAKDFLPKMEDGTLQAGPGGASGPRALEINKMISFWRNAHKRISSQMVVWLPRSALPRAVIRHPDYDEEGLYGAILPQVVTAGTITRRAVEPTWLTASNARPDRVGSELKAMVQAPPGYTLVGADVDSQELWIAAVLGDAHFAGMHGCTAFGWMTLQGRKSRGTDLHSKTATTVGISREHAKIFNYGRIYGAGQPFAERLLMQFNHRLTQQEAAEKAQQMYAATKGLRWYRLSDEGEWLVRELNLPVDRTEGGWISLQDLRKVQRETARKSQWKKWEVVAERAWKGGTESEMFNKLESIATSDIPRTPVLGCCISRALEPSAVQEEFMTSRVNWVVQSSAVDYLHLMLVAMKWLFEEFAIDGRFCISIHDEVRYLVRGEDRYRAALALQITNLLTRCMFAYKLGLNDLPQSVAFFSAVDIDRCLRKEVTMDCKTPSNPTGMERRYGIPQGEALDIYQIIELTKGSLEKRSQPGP
T1 sequence (Q9UHN1 1-485 partner): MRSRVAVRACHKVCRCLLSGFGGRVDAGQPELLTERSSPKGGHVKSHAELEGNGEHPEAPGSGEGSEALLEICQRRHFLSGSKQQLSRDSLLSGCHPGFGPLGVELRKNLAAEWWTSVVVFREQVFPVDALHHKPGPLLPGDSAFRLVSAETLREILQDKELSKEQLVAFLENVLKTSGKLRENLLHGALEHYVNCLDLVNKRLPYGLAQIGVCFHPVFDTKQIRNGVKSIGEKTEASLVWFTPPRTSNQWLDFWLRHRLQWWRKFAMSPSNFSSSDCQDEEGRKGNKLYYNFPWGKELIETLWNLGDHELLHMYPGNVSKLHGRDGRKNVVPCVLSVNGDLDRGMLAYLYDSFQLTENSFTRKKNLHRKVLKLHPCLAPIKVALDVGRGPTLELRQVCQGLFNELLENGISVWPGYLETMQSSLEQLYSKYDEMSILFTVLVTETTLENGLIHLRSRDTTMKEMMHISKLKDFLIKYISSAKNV
Assay: DNA polymerization assay, W748S + E1143G mutant
Assay type: biochemical
Conditions: stimulation of polymerase activity, primed M13mp18 ssDNA, 37° C. 2 hours
Protocol: DNA Polymerization Assay to Monitor Effects on Human Wildtype POLγ and Four Disease-Causing Mutant Variants of Human POLγ.
The ability of small molecules to stimulate the polymerase activity of POLγ was analyzed in a quantitative fluorescence SYBR Green I assay with fluorescence intensity (FI) readout.
In the presence of dNTPs, wild type human POLγ and mutant derivatives thereof were incubated with single-stranded, circular M13mp18 ssDNA hybridized to a short DNA oligonucleotide that functions as a primer for initiation of DNA synthesis. POLγ and mutant derivatives thereof will extend the primer and use the M13mp18 molecule as a template to synthesize long stretches of double-stranded DNA. SYBR Green I, which is a double-stranded DNA-binding dye, was used to quantify formation of double-stranded DNA in the reaction. When bound to double-stranded DNA, SYBR Green I fluorescence increases by up to 100-fold.
The assay was performed in the 384-well plate format. Upon addition of compounds, changes in double-stranded DNA synthesis activity can be monitored by following effects on fluorescent intensity.
The reactions also contained the accessory POLγB subunit, and the human mitochondrial single-stranded DNA binding protein (mtSSB).
The DNA template mixture used in the assay contained 0.5 nM primed M13 mp18 ssDNA, 400 nM mtSSB, 0.1 mM Tris-HCl (pH 8.0), 0.1 mM dNTP, 10 mM MgCl2, 0.1 mg/mL BSA, 1 mM TCEP solution, and 0.02% Triton X-100. The DNA template mixture for the wild type protein contained either 100 μM dNTP, 1 μM dNTP, or 0.1 μM dNTP, designated in Table 2 as 100 μM, 1 μM, and 0.1 μM, respectfully.
Microplates with compounds (0.1 μL in each well) to be tested in the assay were prepared from 10 mM compound stocks in 100% DMSO, and equal amounts of DMSO without any compound were added to positive and negative control wells.
The protein mixture was dispensed (5 μL into each well) into compound plates and incubated at 37° C. for 15 minutes. After incubation, 5 μL of the DNA template mixture was dispensed into each well. The plates were then incubated at 37° C. for 2 hours.
During incubation, a combined stop buffer and detection reagent solution was prepared. The buffer contained 25 mM EDTA (pH 8.0), 0.02% Triton X-100, and SYBR Green I [Invitrogen] diluted 10,000× (for fluorescent readout). EDTA will stop the enzymatic reaction by chelating magnesium ions.

Structure (SMILES)	AC50
Cc1cc(S(=O)(=O)Nc2csc(C(=O)N(CC(N)=O)C3CCCCC3)n2)c(C)cc1Cl [Example 179, N-(2-amino-2-oxoethyl)-4-((4-chloro-2,5-dimethylphenyl)sulfonamido)-N-cyclohexylthiazole-2-carboxamide]	> 10 µM
Cc1cc(S(=O)(=O)Nc2nc(-c3ccccc3)n(C)n2)c(C)cc1Cl [Example 180, 4-chloro-2,5-dimethyl-N-(1-methyl-5-phenyl-1H-1,2,4-triazol-3-yl)benzenesulfonamide]	> 10 µM
Cc1cc(S(=O)(=O)Nc2csc(-c3ccn(C)n3)n2)c(C)cc1Cl [Example 181, 4-chloro-2,5-dimethyl-N-(2-(1-methyl-1H-pyrazol-3-yl)thiazol-4-yl)benzenesulfonamide]	> 10 µM
Cc1cc(S(=O)(=O)Nc2csc(-c3cnn(C)c3)n2)c(C)cc1Cl [Example 183, 4-chloro-2,5-dimethyl-N-(2-(1-methyl-1H-pyrazol-4-yl)thiazol-4-yl)benzenesulfonamide]	0.7 µM
